Results from the supplement of paper PMC13207355.
± gives the standard deviation of the averaged measurements.

Columns and labels:
Settings in all cases: exposure time: 72 h
[1] = tested on: E57 (patient-derived glioblastoma stem cells of mesenchymal subtype); test: surviving fraction (nuclei count normalised to DMSO); higher = more cells surviving (less toxic)
[2] = tested on: E34 (patient-derived glioblastoma stem cells of proneural subtype); test: as above
[3] = tested on: E21 (patient-derived glioblastoma stem cells of mesenchymal subtype); test: as above
[4] = tested on: E13 (patient-derived glioblastoma stem cells of classical subtype); test: as above
[5] = tested on: E28 (patient-derived glioblastoma stem cells of classical subtype); test: as above
[6] = tested on: E31 (patient-derived glioblastoma stem cells of proneural subtype); test: as above
[7] = tested on: FT3469 (normal neural stem cell line); test: as above
[8] = tested on: E57; test: phenotypic distance (Euclidean, principal components) from DMSO controls (arbitrary units); higher = stronger morphological change
[9] = tested on: E34; test: as above
[10] = tested on: E21; test: as above
[11] = tested on: E13; test: as above
[12] = tested on: E28; test: as above
[13] = tested on: E31; test: as above
[14] = tested on: FT3469; test: as above
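Throughout, for phenotypic distance (Euclidean, principal components) from DMSO controls: cell Painting imaging in 384-well plates, CellProfiler features reduced to at least 20 principal components, Euclidean distance versus same-plate DMSO vehicle wells (0.1% v/v), median over six images per well.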
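Throughout, for surviving fraction (nuclei count normalised to DMSO): nuclei counted by high-content imaging of Hoechst-stained cells in laminin-coated 384-well plates, relative to 0.1% DMSO vehicle wells, with staurosporine as cell-death control.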

Nc1ncn([C@@H]2O[C@H](CO)[C@@H](O)[C@H]2O)c(=O)n1 [5-azacytidine]
Settings	phenotypic distance	surviving fraction
[1], 4.11523 nM	–	0.959
[1], 12.34567901 nM	–	0.904
[1], 37.037 nM	–	0.961
[1], 111.1111111 nM	–	0.841
[1], 333.333 nM	–	0.78
[1], 1000 nM	–	0.507
[1], 3000 nM	–	0.287
[2], 4.11523 nM	–	0.97
[2], 12.34567901 nM	–	1.02
[2], 37.037 nM	–	1.01
[2], 111.1111111 nM	–	1.07
[2], 333.333 nM	–	0.862
[2], 1000 nM	–	0.731
[2], 3000 nM	–	0.643
[3], 4.11523 nM	–	0.745
[3], 12.34567901 nM	–	0.93
[3], 37.037 nM	–	0.921
[3], 111.1111111 nM	–	0.871
[3], 333.333 nM	–	0.665
[3], 1000 nM	–	0.6
[3], 3000 nM	–	0.426
[4], 4.11523 nM	–	0.808
[4], 12.34567901 nM	–	0.874
[4], 37.037 nM	–	0.939
[4], 111.1111111 nM	–	0.778
[4], 333.333 nM	–	0.755
[4], 1000 nM	–	0.67
[4], 3000 nM	–	0.358
[5], 4.11523 nM	–	0.899
[5], 12.34567901 nM	–	1.22
[5], 37.037 nM	–	0.711
[5], 111.1111111 nM	–	0.969
[5], 333.333 nM	–	0.753
[5], 1000 nM	–	0.984
[5], 3000 nM	–	0.497
[6], 4.11523 nM	–	0.945
[6], 12.34567901 nM	–	0.84
[6], 37.037 nM	–	0.848
[6], 111.1111111 nM	–	0.9
[6], 333.333 nM	–	0.718
[6], 1000 nM	–	0.644
[6], 3000 nM	–	0.298
[7], 4.11523 nM	–	0.82
[7], 12.34567901 nM	–	0.768
[7], 37.037 nM	–	0.86
[7], 111.1111111 nM	–	0.944
[7], 333.333 nM	–	0.915
[7], 1000 nM	–	0.734
[7], 3000 nM	–	0.665
[8], 4.11523 nM	0.981	–
[8], 12.34567901 nM	1.07	–
[8], 37.037 nM	1.13	–
[8], 111.1111111 nM	1.59	–
[8], 333.333 nM	1.59	–
[8], 1000 nM	3.31	–
[8], 3000 nM	5.71	–
[9], 4.11523 nM	0.558	–
[9], 12.34567901 nM	0.75	–
[9], 37.037 nM	1.12	–
[9], 111.1111111 nM	0.943	–
[9], 333.333 nM	1.52	–
[9], 1000 nM	1.39	–
[9], 3000 nM	2.19	–
[10], 4.11523 nM	1.24	–
[10], 12.34567901 nM	5.31	–
[10], 37.037 nM	1.2	–
[10], 111.1111111 nM	1.66	–
[10], 333.333 nM	1.85	–
[10], 1000 nM	2.19	–
[10], 3000 nM	3.53	–
[11], 4.11523 nM	0.922	–
[11], 12.34567901 nM	0.542	–
[11], 37.037 nM	0.817	–
[11], 111.1111111 nM	1.58	–
[11], 333.333 nM	1.47	–
[11], 1000 nM	3	–
[11], 3000 nM	6.57	–
[12], 4.11523 nM	0.861	–
[12], 12.34567901 nM	1.19	–
[12], 37.037 nM	1.09	–
[12], 111.1111111 nM	0.941	–
[12], 333.333 nM	0.932	–
[12], 1000 nM	1.03	–
[12], 3000 nM	1.84	–
[13], 4.11523 nM	1.21	–
[13], 12.34567901 nM	1.33	–
[13], 37.037 nM	1.03	–
[13], 111.1111111 nM	0.932	–
[13], 333.333 nM	1.18	–
[13], 1000 nM	1.85	–
[13], 3000 nM	3.43	–
[14], 4.11523 nM	1.08	–
[14], 12.34567901 nM	1.06	–
[14], 37.037 nM	0.921	–
[14], 111.1111111 nM	0.795	–
[14], 333.333 nM	0.957	–
[14], 1000 nM	1.34	–
[14], 3000 nM	2.03	–

O=C(/C=C/c1ccc([N+](=O)[O-])cc1)/C=C1/C(=O)Nc2ccc(F)cc21 [APIO-EE-07]
Settings	phenotypic distance	surviving fraction
[1], 2.7 nM	–	0.99 ± 0.053
[1], 8.2 nM	–	1.01 ± 0.055
[1], 24.7 nM	–	1.03 ± 0.037
[1], 74.1 nM	–	1.04 ± 0.012
[1], 222.2 nM	–	0.999 ± 0.013
[1], 666.7 nM	–	1.02 ± 0.033
[1], 2000 nM	–	0.791 ± 0.17
[2], 2.7 nM	–	0.95 ± 0.023
[2], 8.2 nM	–	0.991 ± 0.17
[2], 24.7 nM	–	1 ± 0.015
[2], 74.1 nM	–	0.971 ± 0.024
[2], 222.2 nM	–	0.979 ± 0.015
[2], 666.7 nM	–	0.87 ± 0.045
[2], 2000 nM	–	0.731 ± 0.13
[3], 2.7 nM	–	0.996 ± 0.036
[3], 8.2 nM	–	0.929 ± 0.052
[3], 24.7 nM	–	1.04 ± 0.019
[3], 74.1 nM	–	0.991 ± 0.0045
[3], 222.2 nM	–	0.989 ± 0.067
[3], 666.7 nM	–	1.03 ± 0.03
[3], 2000 nM	–	0.642 ± 0.13
[4], 2.7 nM	–	0.978 ± 0.23
[4], 8.2 nM	–	0.955 ± 0.13
[4], 24.7 nM	–	0.964 ± 0.037
[4], 74.1 nM	–	1.0673 ± 0.00064
[4], 222.2 nM	–	0.994 ± 0.06
[4], 666.7 nM	–	0.9741 ± 0.0051
[4], 2000 nM	–	0.841 ± 0.09
[5], 2.7 nM	–	1.1 ± 0.048
[5], 8.2 nM	–	0.992
[5], 24.7 nM	–	1 ± 0.085
[5], 74.1 nM	–	1.04 ± 0.13
[5], 222.2 nM	–	0.944 ± 0.04
[5], 666.7 nM	–	1.054 ± 0.0027
[5], 2000 nM	–	0.293 ± 0.091
[6], 2.7 nM	–	0.971 ± 0.026
[6], 8.2 nM	–	1.07 ± 0.076
[6], 24.7 nM	–	0.973 ± 0.047
[6], 74.1 nM	–	0.943 ± 0.18
[6], 222.2 nM	–	0.958 ± 0.041
[6], 666.7 nM	–	0.951 ± 0.042
[6], 2000 nM	–	0.448 ± 0.011
[7], 2.7 nM	–	0.932 ± 0.011
[7], 8.2 nM	–	1.01 ± 0.034
[7], 24.7 nM	–	1.04 ± 0.18
[7], 74.1 nM	–	1.09 ± 0.055
[7], 222.2 nM	–	0.975 ± 0.045
[7], 666.7 nM	–	0.982 ± 0.02
[7], 2000 nM	–	0.775 ± 0.014
[8], 2.7 nM	0.81 ± 0.045	–
[8], 8.2 nM	0.581 ± 0.15	–
[8], 24.7 nM	0.418 ± 0.012	–
[8], 74.1 nM	0.557 ± 0.023	–
[8], 222.2 nM	0.584 ± 0.069	–
[8], 666.7 nM	0.739 ± 0.13	–
[8], 2000 nM	2.46 ± 0.7	–
[9], 2.7 nM	0.787 ± 0.065	–
[9], 8.2 nM	0.702 ± 0.28	–
[9], 24.7 nM	0.648 ± 0.067	–
[9], 74.1 nM	0.775 ± 0.36	–
[9], 222.2 nM	0.511 ± 0.098	–
[9], 666.7 nM	1.19 ± 0.3	–
[9], 2000 nM	1.13 ± 0.095	–
[10], 2.7 nM	0.833 ± 0.17	–
[10], 8.2 nM	0.648 ± 0.027	–
[10], 24.7 nM	0.526 ± 0.4	–
[10], 74.1 nM	2.82 ± 3.1	–
[10], 222.2 nM	0.86 ± 0.57	–
[10], 666.7 nM	0.927 ± 0.2	–
[10], 2000 nM	2.33 ± 0.96	–
[11], 2.7 nM	0.638 ± 0.027	–
[11], 8.2 nM	0.674 ± 0.096	–
[11], 24.7 nM	0.47 ± 0.16	–
[11], 74.1 nM	0.494 ± 0.022	–
[11], 222.2 nM	0.491 ± 0.29	–
[11], 666.7 nM	0.644 ± 0.16	–
[11], 2000 nM	0.888 ± 0.24	–
[12], 2.7 nM	0.693 ± 0.21	–
[12], 8.2 nM	0.629 ± 0.25	–
[12], 24.7 nM	0.459 ± 0.0068	–
[12], 74.1 nM	0.507 ± 0.076	–
[12], 222.2 nM	1.59 ± 1.6	–
[12], 666.7 nM	0.58 ± 0.064	–
[12], 2000 nM	3.56 ± 0.092	–
[13], 2.7 nM	0.66 ± 0.099	–
[13], 8.2 nM	0.527 ± 0.1	–
[13], 24.7 nM	0.585 ± 0.22	–
[13], 74.1 nM	0.697 ± 0.057	–
[13], 222.2 nM	0.744 ± 0.16	–
[13], 666.7 nM	0.876 ± 0.065	–
[13], 2000 nM	1.95 ± 0.25	–
[14], 2.7 nM	0.776 ± 0.027	–
[14], 8.2 nM	0.699 ± 0.17	–
[14], 24.7 nM	2.24 ± 1.8	–
[14], 74.1 nM	1.29 ± 0.23	–
[14], 222.2 nM	0.569 ± 0.076	–
[14], 666.7 nM	0.6 ± 0.36	–
[14], 2000 nM	2.12 ± 1.5	–
